Reference: article PMC7985297 (Communications Biology, 2021)
Values joined by “and” are separate entries in the source; they are usually repeats but may differ in a detail not shown here. Identical values can stand only once. “Also recorded” adds a separate entry of the source.

Tests used:
LN95 cells [1] = test: Senescence-associated β-galactosidase staining, LN95; conditions: 3 days
Method: β-galactosidase activity at suboptimal pH (6.0) was used as a marker to detect cellular senescence[42]. Cells were seeded in four-well chamber slides at a density of 8000-10,000 cells. […] Three days later, the media was removed and cells were fixed with 2% formaldehyde/0.2% glutaraldehyde for 10 min at room temperature, washed with PBS, and then incubated with freshly prepared β-Gal staining solution (Cell Signaling) titrated to pH 6.0. Staining was optimal after incubating with the β-Gal solution at 37 °C for 16–18 h. After staining, the slides were washed twice with PBS, once with absolute methanol, and then mounted with 50% glycerol/PBS. The percentage of β-galactosidase-positive cells were counted with ImageJ using the Cell Counter plugin. A total of nine images containing 100–300 cells were scored to determine the percentages of positive cells.

[2] = biological target: T1, recombinant human Pin1 protein (Homo sapiens, UniProt Q13526); test: Pin1 inhibition assay (fluorometric isomerase activity); type: biochemical; conditions: compounds 0–50 µM, 500 ng Pin1, Supplementary Fig. 2
T1 construct: purchased Abcam ab51230
T1 sequence (Q13526 whole entry): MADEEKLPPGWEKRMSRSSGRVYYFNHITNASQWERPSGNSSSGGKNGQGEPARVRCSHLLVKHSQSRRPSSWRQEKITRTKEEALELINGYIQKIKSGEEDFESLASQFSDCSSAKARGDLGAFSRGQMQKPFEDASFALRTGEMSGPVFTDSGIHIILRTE
Method: The effect of inhibitors on Pin1 isomerase activity was evaluated using a fluorometric Pin1 Assay Kit (AnaSpec, Fremont, California), according to the manufacturer’s protocol. […] Fluorescence intensity was measured with excitation wavelength at 490 nm and emission wavelength at 520 nm on an Infinite M1000 plate reader (Tecan, Männedorf, Switzerland) at 37 °C. Measurements were recorded every 5 min for up to 1 h.
Fluorescent polarization-based assay
the isomerase activity of Pin1. Each reaction contains 500 ng of
recombinant human Pin1 protein incubated with an inhibitor and a
fluorogenic substrate at 37°C. The uncatalyzed reaction represents
the intrinsic cis/trans isomerization of the substrate without Pin1
separate experiments with the correlation performed in duplicate
wells. RFU, relative fluorescent units.
(1 picture or pasted object on this page, not shown here)

LNCaP cells = test: Senescence-associated β-galactosidase staining, LNCaP; type: cell-based, human; conditions: ATRA 10 µM, 3 days
Text: Supplementary Figure 6. […] ( a)
Staining of senescence-associated β-galactosidase (SA β-gal) activity in cell lines treated with vehicle
Original magnification ×100.
percentage of β-gal positive cells as means ± s.e.m. from 3 independent experiments, where at least
1,000 cells were scored for each group. (c) Representative Western blot showing the indicated cell […]

[3] = system: Pin1, Cyclin D1, Skp2 and AR in LN95-D3 tumors; test: Western blot of harvested LN95-D3 xenograft tumors (Pin1, Cyclin D1, Skp2, AR); type: in vivo, mice; conditions: ATRA pellets compared to placebo
Method: Scale bars represent 5 mm (f) western blot analysis showing the expression of Pin1, Cyclin D1, Skp2, and AR from representative tumors. Quantification of the data is shown for g Pin1 and h Skp2, where the error bars represent the mean ± s.e.m.
All experiments involving animals conform to the relevant regulatory and ethical standards and were approved by the University of British Columbia Animal Care Committee (A18-0077). Metacam (1 mg/kg, 0.05 mL/10 g of body weight) was administered subcutaneously prior to any surgery. Animals were anesthetized with isoflurane and euthanized by CO2. Six–eight-week-old male (NOD-scid IL2Rgamma^null) mice were maintained in the Animal Care Facility at the British Columbia Cancer Research Centre. Mice were castrated 2 weeks before they were subcutaneously inoculated in the right flank with two million LN95-D3 cells in a 1:1 volume of matrigel (Corning Discovery Labware, Corning, NY). […] Tumors were excised 1 day after the last dose and prepared for western blot analysis and immunohistochemistry.

LN95 cells [4] = test: Cell cycle analysis by flow cytometry, LN95; conditions: LN95, ATRA 5 and 10 μM, EPI-002 25 μM, 24 or 48 h
Method: After treatments, the cells were labeled with BrdU (10 μM) for 2 h and then trypsinized, washed, and fixed in 70% EtOH/PBS at −20 °C. Approximately 2.5–5.0 × 10^5 of fixed cells were labeled with fluorescein (FITC)-conjugated anti-BrdU antibody (B44; BD Biosciences) and the DNA content was stained with 7-AAD (Sigma). The data were collected with a BD FACSCalibur flow cytometer (BD Biosciences). FITC and 7-AAD fluorescence were detected in the FL1 and FL3 channels, respectively, using CellQuest Pro and analyzed by FlowJo V10 software (Ashland, Oregon). Pre-gating was performed on all samples by plotting FL3-W × FL3-H to exclude doublets from the analysis.

PC-3 cells = test: BrdU incorporation assay, PC-3; type: cell-based, human; conditions: ATRA 10 µM; for BrdU incorporation, PC-3 (Fig. 4c): − R1881, ENZ 10 µM, EPI-002 25 µM, JUG 20 µM
Method: Cells were treated with the inhibitors and stimulated with 1 nM of R1881 (+) or vehicle (−) for 24 to 72 h. Each data point represents the average from an independent experiment where the error bars show the mean ± s.e.m.
BrdU incorporation was determined with the colorimetric BrdU ELISA kit (Roche Diagnostics), according to the manufacturer’s protocol. In brief, cells were seeded in 96-well plates (LNCaP, 5000/well; LN95, 8000/well; PC-3 and DU145, 4000/wells) in media with reduced serum (0.5–1%). On the following day, cells were pre-treated with test compounds for 1 h and then incubated with 0.1 nM of R1881. After the indicated incubation times, cells were labeled with 10 μM of BrdU for 2 h and then fixed for the assay.

LN95-D3 xenografts = test: Growth of LN95-D3 CRPC xenografts in castrated male NSG mice; type: in vivo; conditions: for Tumor volume, individual animals (Fig. 7b): ATRA 5mg, in mm³ (unit assumed)
YFP-AR fusion protein = biological target: T2, YFP-AR fusion protein (Homo sapiens, UniProt P10275); type: cell-based
T2 construct: expressed in transfected cells; host or cells: LNCaP
T2 sequence (P10275 whole entry, the tested form may be a part): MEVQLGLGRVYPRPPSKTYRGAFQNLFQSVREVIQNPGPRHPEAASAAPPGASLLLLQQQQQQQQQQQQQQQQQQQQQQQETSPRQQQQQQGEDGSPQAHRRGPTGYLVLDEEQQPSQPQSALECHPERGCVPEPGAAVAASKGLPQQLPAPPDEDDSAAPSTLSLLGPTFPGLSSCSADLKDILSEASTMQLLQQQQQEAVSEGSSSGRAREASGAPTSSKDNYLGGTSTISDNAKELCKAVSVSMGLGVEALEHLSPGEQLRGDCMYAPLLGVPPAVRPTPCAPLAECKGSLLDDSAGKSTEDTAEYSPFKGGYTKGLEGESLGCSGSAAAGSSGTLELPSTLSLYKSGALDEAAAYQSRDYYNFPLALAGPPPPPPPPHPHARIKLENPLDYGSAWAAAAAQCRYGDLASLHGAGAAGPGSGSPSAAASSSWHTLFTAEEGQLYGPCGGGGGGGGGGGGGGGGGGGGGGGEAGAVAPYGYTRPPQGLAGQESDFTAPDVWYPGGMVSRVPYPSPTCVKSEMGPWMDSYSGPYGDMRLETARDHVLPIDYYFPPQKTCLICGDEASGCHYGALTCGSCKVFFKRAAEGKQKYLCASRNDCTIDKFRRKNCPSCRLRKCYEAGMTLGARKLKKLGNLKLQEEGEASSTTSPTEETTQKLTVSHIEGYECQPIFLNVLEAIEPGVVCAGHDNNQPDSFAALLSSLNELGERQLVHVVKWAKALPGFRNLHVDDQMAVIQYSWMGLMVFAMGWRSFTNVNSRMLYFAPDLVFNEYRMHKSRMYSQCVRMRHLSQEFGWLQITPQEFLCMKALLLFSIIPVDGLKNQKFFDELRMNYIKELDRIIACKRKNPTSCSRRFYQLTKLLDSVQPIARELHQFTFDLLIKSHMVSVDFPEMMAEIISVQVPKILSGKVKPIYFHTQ
Method: Scores greater than 1 indicate nuclear localization. At least 50 cells were scored for each treatment.
AR translocation assays were performed by a modified protocol from Myung et al.[9]. Approximately 2.8 × 10^5 LNCaP cells were grown on coverslips in six-well plates and transiently transfected with 2 μg of an expression vector encoding a YFP-AR fusion protein. On the following day, cells were pre-treated with the indicated compounds for 1 h and stimulated with R1881 (1 nM) or a vehicle containing ethanol for 3 h. After incubating with compounds, cells were fixed with 4% paraformaldehyde, washed twice with PBS, and then counterstained with DAPI. Slides were examined on an Axiovert 200 Fluorescence Microscope (Zeiss, Oberkochen, Germany). The ratio of the YFP signal in the nucleus relative to the cytoplasm was quantified with ImageJ software. For each image, background fluorescence was measured and subtracted from experimental values. A total of at least 50 cells from nine images containing six or more cells per field were quantified to determine the nuclear to cytoplasmic YFP ratio for each treatment group.

CC1=C(/C=C/C(C)=C/C=C/C(C)=C/C(=O)O)C(C)(C)CCC1 [ATRA, all-trans retinoic acid]
effect on percentage of SA β-gal-positive cells (LN95 cells [1]; LN95, ATRA 10 µM): significantly increased the percentage of SA β-gal-positive cells for LNCaP and LN95 cells | SA β-gal-positive cells (LN95 cells [1]; LN95, ATRA 10 μM, EPI-002 25 μM): 37% | effect on isomerase activity of Pin1 [2]: inhibited the isomerase activity of Pin1 in a dose-dependent manner | effect on percentage of SA β-gal-positive cells (LNCaP cells): significantly increased the percentage of SA β-gal-positive cells for LNCaP and LN95 cells | Pin1 (and cyclin D1) levels in xenografts [3]: decrease in Pin1 levels; also recorded: decreased levels of Pin1 and its target cyclin D1 | effect on cell cycle / S phase population (LN95 cells [4]): reduced the S phase population in a dose- and time-dependent manner | effect on proliferation of PC-3 cells (PC-3 cells): did not impact the proliferation of either PC-3 or DU145 cells | BrdU incorporation, PC-3 (Fig. 4c) (PC-3 cells): 1.204 and 0.885 and 0.987 and 1.277 | tumor growth after 21 days of treatment (LN95-D3 xenografts; castrated mice, ATRA 5 mg 21-day release pellet, EPI-7170 30 mg/kg daily oral, relative to vehicle/placebo-control): significantly reduced | growth of LN95-D3 tumors, pilot study (LN95-D3 xenografts; mice bearing ATRA slow-release pellets compared to placebo): markedly reduced | Tumor volume, individual animals (Fig. 7b) (LN95-D3 xenografts; treatment duration 0 days): 24.32 and 14.61 and 31.83 and 56.34 and 20.55 and 20.28 and 50.07 and 32.48 | Tumor volume, individual animals (Fig. 7b) (LN95-D3 xenografts; treatment duration 3 days): 55.84 and 24.48 and 48.26 and 128.17 and 47.08 and 28.39 and 67.63 and 51.78 | Tumor volume, individual animals (Fig. 7b) (LN95-D3 xenografts; treatment duration 6 days): 83.34 and 43.04 and 71.44 and 190.56 and 74.31 and 35.31 and 102.14 and 93.49 | Tumor volume, individual animals (Fig. 7b) (LN95-D3 xenografts; treatment duration 9 days): 133.91 and 53.07 and 85.22 and 295.56 and 122.11 and 47.93 and 142.91 and 132.75 | Tumor volume, individual animals (Fig. 7b) (LN95-D3 xenografts; treatment duration 12 days): 206.68 and 57.46 and 89.96 and 435.8 and 154.08 and 63.14 and 159.59 and 153.66 | Tumor volume, individual animals (Fig. 7b) (LN95-D3 xenografts; treatment duration 15 days): 291.35 and 84.16 and 118.21 and 658.17 and 325.4 and 102.18 and 255.62 and 266.01 | Tumor volume, individual animals (Fig. 7b) (LN95-D3 xenografts; treatment duration 18 days): 379.83 and 117.24 and 202.18 and 871.57 and 503.37 and 170.47 and 377.34 and 331.83 | Tumor volume, individual animals (Fig. 7b) (LN95-D3 xenografts; treatment duration 21 days): 564.91 and 139.55 and 232.06 and 1102.95 and 649.08 and 196.67 and 421.71 and 345.48

O=C1C=CC(=O)c2c(O)cccc21 [juglone]
YFP-AR localization, ratio of YFP intensity nucleus to cytosol (Fig. 2h), EtOH (YFP-AR fusion protein): 0.76 and 0.781 and 0.791 | YFP-AR localization, ratio of YFP intensity nucleus to cytosol (Fig. 2h), R1881 (YFP-AR fusion protein): 1.983 and 2.303 and 2.076 | effect on isomerase activity of Pin1 [2]: inhibited the isomerase activity of Pin1 in a dose-dependent manner | BrdU incorporation, PC-3 (Fig. 4c) (PC-3 cells; listed as JUG): 0.17 and 0.16 and 0.171 and 0.227
